Key:
Type in all cases: cell-based
human TLR7 = biological target: T1, human TLR7 (Homo sapiens, UniProt Q9NYK1); assay: TLR7 inhibition reporter assay (HEK-Blue SEAP reporter); settings: HEK-Blue cells overexpressing human TLR7; gardiquimod 7.5 μM; 22 hour incubation
T1 construct: host or cells: HEK-Blue cells
T1 sequence (Q9NYK1 27-1049): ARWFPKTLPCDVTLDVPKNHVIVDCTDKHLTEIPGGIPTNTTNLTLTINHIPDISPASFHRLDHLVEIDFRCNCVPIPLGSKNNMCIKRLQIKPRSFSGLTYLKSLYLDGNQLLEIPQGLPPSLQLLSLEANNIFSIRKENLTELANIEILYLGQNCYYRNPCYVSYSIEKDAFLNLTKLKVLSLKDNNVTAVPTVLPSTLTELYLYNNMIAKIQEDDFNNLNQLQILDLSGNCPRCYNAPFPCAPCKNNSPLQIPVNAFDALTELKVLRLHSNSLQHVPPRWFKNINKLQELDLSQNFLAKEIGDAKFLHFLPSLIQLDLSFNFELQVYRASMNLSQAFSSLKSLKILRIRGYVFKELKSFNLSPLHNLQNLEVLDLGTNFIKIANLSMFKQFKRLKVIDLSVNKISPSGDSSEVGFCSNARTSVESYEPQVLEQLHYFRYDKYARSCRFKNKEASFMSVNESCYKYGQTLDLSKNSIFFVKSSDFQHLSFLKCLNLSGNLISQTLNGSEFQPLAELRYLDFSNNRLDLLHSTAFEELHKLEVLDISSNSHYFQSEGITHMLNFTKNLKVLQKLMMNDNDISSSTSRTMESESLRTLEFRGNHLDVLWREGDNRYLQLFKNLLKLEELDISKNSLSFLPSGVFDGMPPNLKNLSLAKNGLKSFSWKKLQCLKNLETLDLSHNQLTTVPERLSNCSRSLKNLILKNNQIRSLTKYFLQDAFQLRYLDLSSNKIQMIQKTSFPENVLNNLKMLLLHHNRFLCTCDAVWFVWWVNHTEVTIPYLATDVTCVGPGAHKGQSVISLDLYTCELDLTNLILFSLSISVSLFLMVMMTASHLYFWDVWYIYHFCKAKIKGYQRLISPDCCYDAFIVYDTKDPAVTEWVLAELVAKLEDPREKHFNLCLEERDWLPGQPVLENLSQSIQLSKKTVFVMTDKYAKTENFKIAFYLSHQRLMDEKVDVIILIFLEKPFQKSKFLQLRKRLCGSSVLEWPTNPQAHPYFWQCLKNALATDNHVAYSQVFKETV
Summary of the method: (§1)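 Dose–response from 0.05 nM to 50 μM was run in HEK-Blue human TLR7, TLR8 and TLR9 reporter cells. After 30 min at room temperature with compound, ligand was added (TLR7 gardiquimod 7.5 μM; TLR8 R848 15.9 μM; TLR9 ODN2006 5 nM) and SEAP measured next day, at 22 h.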

human TLR8 = biological target: T2, human TLR8 (Homo sapiens, UniProt Q9NR97); assay: TLR8 inhibition reporter assay (HEK-Blue SEAP reporter); settings: HEK-Blue cells overexpressing human TLR8; R848 15.9 μM; 22 hour incubation
T2 construct: host or cells: HEK-Blue cells
T2 sequence (Q9NR97 27-1041): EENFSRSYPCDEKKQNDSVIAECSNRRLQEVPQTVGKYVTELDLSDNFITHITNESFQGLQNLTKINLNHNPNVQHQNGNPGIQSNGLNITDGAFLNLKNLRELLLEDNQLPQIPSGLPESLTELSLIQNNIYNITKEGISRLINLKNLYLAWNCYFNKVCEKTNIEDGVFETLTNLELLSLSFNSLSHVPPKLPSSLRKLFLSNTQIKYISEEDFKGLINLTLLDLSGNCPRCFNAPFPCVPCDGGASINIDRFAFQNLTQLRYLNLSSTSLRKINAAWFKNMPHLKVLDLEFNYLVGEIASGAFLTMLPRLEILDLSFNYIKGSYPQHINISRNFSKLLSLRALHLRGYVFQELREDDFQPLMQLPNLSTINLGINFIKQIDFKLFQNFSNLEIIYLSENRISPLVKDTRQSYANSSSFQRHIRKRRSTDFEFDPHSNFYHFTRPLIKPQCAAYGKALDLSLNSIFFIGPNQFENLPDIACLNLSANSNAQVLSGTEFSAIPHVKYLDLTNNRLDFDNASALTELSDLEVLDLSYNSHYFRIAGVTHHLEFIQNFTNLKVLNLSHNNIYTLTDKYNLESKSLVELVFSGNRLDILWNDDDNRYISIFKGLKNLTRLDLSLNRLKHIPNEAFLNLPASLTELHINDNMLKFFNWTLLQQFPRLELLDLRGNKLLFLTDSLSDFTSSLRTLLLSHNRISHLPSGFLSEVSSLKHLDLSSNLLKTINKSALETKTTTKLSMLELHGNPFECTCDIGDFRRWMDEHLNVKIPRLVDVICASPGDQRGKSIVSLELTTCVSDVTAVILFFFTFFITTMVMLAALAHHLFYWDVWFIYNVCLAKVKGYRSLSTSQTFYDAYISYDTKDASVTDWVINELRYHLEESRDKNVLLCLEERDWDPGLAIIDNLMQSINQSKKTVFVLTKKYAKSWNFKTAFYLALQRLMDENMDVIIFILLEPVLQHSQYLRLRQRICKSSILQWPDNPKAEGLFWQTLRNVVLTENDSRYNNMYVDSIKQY
Procedure: TLR7/8/9 Inhibition Reporter Assays
HEK-Blue™-cells (Invivogen) overexpressing human TLR7, TLR8 or TLR9 receptors were used for screening inhibitors of these receptors using an inducible SEAP (secreted embryonic alkaline phosphatase) reporter gene under the control of the IFN-β minimal promoter fused to five NF-κB and AP-1-binding sites. Briefly, cells are seeded into Greiner 384 well plates (15000 cells per well for TLR7, 20,000 for TLR8 and 25,000 for TLR9) and then treated with test compounds in DMSO to yield a final dose response concentration range of 0.05 nM-50 μM. After a 30 minute compound pre-treatment at room temperature, the cells are then stimulated with a TLR7 ligand (gardiquimod at a final concentration of 7.5 μM), TLR8 ligand (R848 at a final concentration of 15.9 μM) or TLR9 ligand (ODN2006 at a final concentration of 5 nM) to activate NF-κB and AP-1 which induce the production of SEAP. After a 22 hour incubation at 37° C., 5% CO2, SEAP levels are determined with the addition of HEK-Blue™ Detection reagent (Invivogen), a cell culture medium that allows for detection of SEAP, according to manufacturer's specifications. The percent inhibition is determined as the % reduction in the HEK-Blue signal present in wells treated with agonist plus DMSO alone compared to wells treated with a known inhibitor.

human TLR9 = biological target: T3, human TLR9 (Homo sapiens, UniProt Q9NR96); assay: TLR9 inhibition reporter assay (HEK-Blue SEAP reporter); settings: HEK-Blue cells overexpressing human TLR9; ODN2006 5 nM; 22 hour incubation
T3 construct: host or cells: HEK-Blue cells
T3 sequence (Q9NR96 26-1032): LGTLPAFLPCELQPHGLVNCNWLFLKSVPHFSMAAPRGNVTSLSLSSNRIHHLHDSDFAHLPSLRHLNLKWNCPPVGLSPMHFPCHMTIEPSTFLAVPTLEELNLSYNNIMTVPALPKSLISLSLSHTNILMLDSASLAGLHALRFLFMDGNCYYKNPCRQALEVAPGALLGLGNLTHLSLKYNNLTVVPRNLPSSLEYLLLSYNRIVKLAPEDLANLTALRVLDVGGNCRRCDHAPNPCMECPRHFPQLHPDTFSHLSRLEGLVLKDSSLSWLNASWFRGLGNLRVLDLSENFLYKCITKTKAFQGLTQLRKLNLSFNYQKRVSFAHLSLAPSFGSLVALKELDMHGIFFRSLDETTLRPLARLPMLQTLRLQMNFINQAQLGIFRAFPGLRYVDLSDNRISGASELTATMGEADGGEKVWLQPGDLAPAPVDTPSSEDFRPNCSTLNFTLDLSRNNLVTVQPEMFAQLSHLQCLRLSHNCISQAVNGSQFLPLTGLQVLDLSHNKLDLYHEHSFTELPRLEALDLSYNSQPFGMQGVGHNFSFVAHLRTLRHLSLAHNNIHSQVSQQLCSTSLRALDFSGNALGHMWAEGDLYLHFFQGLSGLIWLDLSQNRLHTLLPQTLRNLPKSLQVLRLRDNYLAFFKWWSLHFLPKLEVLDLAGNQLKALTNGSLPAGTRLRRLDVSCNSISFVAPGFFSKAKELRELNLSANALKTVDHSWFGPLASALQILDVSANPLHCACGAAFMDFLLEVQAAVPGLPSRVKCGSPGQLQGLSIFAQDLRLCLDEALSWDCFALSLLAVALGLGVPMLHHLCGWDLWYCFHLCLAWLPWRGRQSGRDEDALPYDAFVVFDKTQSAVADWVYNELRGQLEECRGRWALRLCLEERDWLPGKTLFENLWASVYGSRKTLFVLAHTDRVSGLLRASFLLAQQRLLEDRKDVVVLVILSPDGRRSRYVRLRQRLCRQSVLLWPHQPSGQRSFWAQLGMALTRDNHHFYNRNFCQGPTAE
Summary of the method: as §1

Compound | IC50 (human TLR7) | IC50 (human TLR8) | IC50 (human TLR9)
COc1ccc(-c2[nH]c3ccc(NC4CCC(NC5CCN(C)CC5)CC4)cc3c2C(C)C)cc1OC (single isomer, unassigned) [Example 40, N1-(2-(3,4-dimethoxyphenyl)-3-isopropyl-1H-indol-5-yl)-N4-(1-methylpiperidin-4-yl)cyclohexane-1,4-diamine] | 43 nM | 171 nM | 570 nM
COc1ccc(-c2[nH]c3ccc(NC(=O)[C@@H](N)CC(N)=O)cc3c2C(C)C)cc1OC [Example 18, (S)-2-amino-N1-(2-(3,4-dimethoxyphenyl)-3-isopropyl-1H-indol-5-yl)succinamide] | 280 nM | 89 nM | –
COc1ccc(-c2[nH]c3ccc(NC(=O)[C@H](N)CC(N)=O)cc3c2C(C)C)cc1OC [Example 19, (R)-2-amino-N1-(2-(3,4-dimethoxyphenyl)-3-isopropyl-1H-indol-5-yl)succinamide] | 441 nM | 97 nM | –
COc1ccc(-c2[nH]c3ccc(N4CCC(CCN(C)C)CC4)cc3c2C(C)C)cc1OC [Example 71, 2-(1-(2-(3,4-dimethoxyphenyl)-3-isopropyl-1H-indol-5-yl)piperidin-4-yl)-N,N-dimethylethan-1-amine] | – | > 50000 nM | 608 nM
CCN1CCC(N2CCN(c3ccc4[nH]c(-c5ccc(OC)c(OC)c5)c(C)c4c3)CC2)CC1 [Example 155, 2-(3,4-dimethoxyphenyl)-5-(4-(1-ethylpiperidin-4-yl)piperazin-1-yl)-3-methyl-1H-indole] | – | > 50000 nM | 451 nM
CCc1c(-c2ccnc(C)c2)[nH]c2ccc(N3CCC(OC4CCN(C(C)C)CC4)CC3)cc12 [Example 182, 3-ethyl-5-(4-((1-isopropylpiperidin-4-yl)oxy)piperidin-1-yl)-2-(2-methylpyridin-4-yl)-1H-indole] | – | 47900 nM | 658 nM

Second part, the compound after the results:

IC50 (human TLR7) | IC50 (human TLR8) | IC50 (human TLR9) | Compound
6.4 nM | 5.8 nM | 597 nM | Cc1cc(-c2[nH]c3ccc(N4CCC(N5CCN(C(C)C)CC5)C4=O)cc3c2C(C)C)cc(C)n1 (single isomer, unassigned) [Example 5, 1-(2-(2,6-dimethylpyridin-4-yl)-3-isopropyl-1H-indol-5-yl)-3-(4-isopropylpiperazin-1-yl) pyrrolidin-2-one]
3.9 nM | 4.9 nM | 1020 nM | Cc1cc(-c2[nH]c3ccc(N4CCC(N5CCN(C(C)C)CC5)C4=O)cc3c2C(C)C)cc(C)n1 (single isomer, unassigned) [Example 6, 1-(2-(2,6-dimethylpyridin-4-yl)-3-isopropyl-1H-indol-5-yl)-3-(4-isopropylpiperazin-1-yl) pyrrolidin-2-one]
434 nM | 234 nM | 281 nM | CNCCNC1CCC(Nc2ccc3[nH]c(-c4ccc(OC)c(OC)c4)c(C(C)C)c3c2)CC1 (single isomer, unassigned) [Example 30, N1-(2-(3,4-dimethoxyphenyl)-3-isopropyl-1H-indol-5-yl)-N4-(2-(methylamino)ethyl)cyclohexane-1,4-diamine]
189 nM | 16 nM | 488 nM | CNCCNC1CCN(c2ccc3[nH]c(-c4ccnc(C)c4)c(C(C)C)c3c2)C1=O (stereo not shown) [Example 1, 1-(3-isopropyl-2-(2-methylpyridin-4-yl)-1H-indol-5-yl)-3-((2-(methylamino)ethyl)amino)pyrrolidin-2-one]
99 nM | 28 nM | 4970 nM | Cc1cc(-c2[nH]c3ccc(N4CCC(N(C)CCN)C4=O)cc3c2C(C)C)ccn1 (stereo not shown) [Example 2, 3-((2-aminoethyl)(methyl)amino)-1-(3-isopropyl-2-(2-methylpyridin-4-yl)-1H-indol-5-yl)pyrrolidin-2-one]
44 nM | 31 nM | 10800 nM | COc1ccc(-c2[nH]c3ccc(N4CCC(N(C)C)C4=O)cc3c2C(C)C)cc1OC (stereo not shown) [Example 3, 1-(2-(3,4-dimethoxyphenyl)-3-isopropyl-1H-indol-5-yl)-3-(dimethylamino)pyrrolidin-2-one]

— patent publication US11306092B2, “Amino indole compounds useful as TLR inhibitors” (BRISTOL-MYERS SQUIBB COMPANY, priority 2017, dated 2022)
